The text below walks through data of PubChem BioAssay (NCI).

Test systems include ACHN renal; EKVX NSCLC; HCT-15 colon; LOX IMVI melanoma; M14 melanoma; MALME-3M melanoma; SF-268 CNS; SK-MEL-2 melanoma; SK-MEL-28 melanoma; SNB-19 CNS.
What all share (assay): NCI anticancer screen, dose series, 48 h

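Each compound was tested at five concentrations against cells in 96-well plates for 48 hours. GI50 is the concentration that inhibits growth by half. TGI denotes the concentration required for complete inhibition of growth.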 Some results are limits rather than exact numbers.

Consider `CC1=C([Se]CC(OC(=O)CC[Se]c2ccccc2)C(=O)NC(C)(C)C)C(=O)c2ccccc2C1=O` (stereo not given), for which the GI50 in the test with ACHN renal was 1.86 µM; in the test on EKVX NSCLC, 1.73 µM; in the test with HCT-15 colon, 2.47 µM; with LOX IMVI melanoma it was 1.94 µM; in the test on M14 melanoma it was 1.67 µM; in the test with MALME-3M melanoma it was 2.1 µM. Moreover, the GI50 in the test with SF-268 CNS was 1.76 µM; with SK-MEL-2 melanoma, 2 µM; in the test on SK-MEL-28 melanoma, 2.08 µM; in the test on SNB-19 CNS, 0.638 µM. Besides, the TGI came out at 3.69 µM in the test on ACHN renal; 3.8 µM with EKVX NSCLC; 5.86 µM in the test on HCT-15 colon; 4.7 µM with LOX IMVI melanoma; 3.21 µM in the test with M14 melanoma; 4.46 µM in the test with MALME-3M melanoma. The TGI with SF-268 CNS is 3.29 µM; in the test on SK-MEL-2 melanoma, 3.7 µM; with SK-MEL-28 melanoma, 3.55 µM; with SNB-19 CNS it was 2.05 µM.

With `O=C(NCCCOC(=O)CCCCCCCCC(=O)OCCCNC(=O)NC(=O)c1c[nH]c(=O)[nH]c1=O)NC(=O)c1c[nH]c(=O)[nH]c1=O`, the TGI with ACHN renal, with EKVX NSCLC, with HCT-15 colon, in the test on LOX IMVI melanoma, with M14 melanoma and in the test on MALME-3M melanoma was greater than 100 µM in each case. Moreover, the TGI in the test with SF-268 CNS, in the test on SK-MEL-2 melanoma, with SK-MEL-28 melanoma and in the test with SNB-19 CNS was greater than 100 µM each time.

With `COc1ccc2c(c1)C(=O)/C(=C/c1cccc(OCC(=O)c3ccccc3)c1)CC2`, the GI50 with ACHN renal is 31.8 µM; in the test on EKVX NSCLC, 13.9 µM; with HCT-15 colon it was 7.11 µM; in the test with LOX IMVI melanoma it was 9.61 µM; in the test on M14 melanoma it was 16.7 µM; in the test with MALME-3M melanoma, 28.5 µM. Moreover, the GI50 in the test with SF-268 CNS was 45.2 µM; with SK-MEL-2 melanoma, 13.4 µM; in the test with SK-MEL-28 melanoma it was 32.8 µM; with SNB-19 CNS it was 39.6 µM. Besides, the TGI with ACHN renal, with EKVX NSCLC, with HCT-15 colon, with LOX IMVI melanoma, in the test with M14 melanoma and with MALME-3M melanoma was greater than 100 µM throughout. Moreover, the TGI in the test on SF-268 CNS, in the test with SK-MEL-2 melanoma, with SK-MEL-28 melanoma and with SNB-19 CNS was greater than 100 µM each time.

For the compound `O=c1cc(-c2cccs2)[nH]c2cc3c(cc12)OCO3`, the TGI in the test with ACHN renal, in the test with EKVX NSCLC, in the test on HCT-15 colon, in the test with LOX IMVI melanoma, with M14 melanoma and in the test on MALME-3M melanoma was greater than 100 µM each time. Besides, the TGI in the test with SF-268 CNS was greater than 100 µM; with SK-MEL-2 melanoma it was greater than 48 µM; in the test on SK-MEL-28 melanoma, greater than 100 µM; with SNB-19 CNS, greater than 100 µM.

As for `O=C1Nc2ccccc2C1(O)C/C(=N/O)c1ccc2ccccc2c1` (stereo not given), the TGI with ACHN renal is greater than 100 µM; in the test on EKVX NSCLC it was greater than 100 µM; in the test with HCT-15 colon, greater than 100 µM; in the test on LOX IMVI melanoma it was 81.9 µM; in the test on M14 melanoma, greater than 100 µM; in the test with MALME-3M melanoma, greater than 100 µM. The TGI with SF-268 CNS, in the test on SK-MEL-2 melanoma, in the test with SK-MEL-28 melanoma and with SNB-19 CNS was greater than 100 µM each time.

On to `CC1=C(C(=O)Nc2ccccc2C)C(c2ccc(Cl)cc2)C(C(=O)Nc2ccccc2C)=C(C)N1`, for which the TGI in the test with ACHN renal, in the test on EKVX NSCLC, in the test on HCT-15 colon, in the test on LOX IMVI melanoma, in the test on M14 melanoma and in the test with MALME-3M melanoma was greater than 100 µM throughout. The TGI with SF-268 CNS, in the test with SK-MEL-2 melanoma, in the test on SK-MEL-28 melanoma and in the test on SNB-19 CNS was greater than 100 µM in each case.

As for `CCC1(O)C(=O)OCc2c1cc1n(c2=O)Cc2cc3ccccc3nc2-1` (stereo not given), the TGI in the test with ACHN renal is 0.519 µM; in the test with EKVX NSCLC it was 0.488 µM; in the test with HCT-15 colon, 17.1 µM; in the test on LOX IMVI melanoma, 1.33 µM; with M14 melanoma, 0.0271 µM; in the test on MALME-3M melanoma it was 11.8 µM. Further, the TGI in the test on SF-268 CNS turned out to be 15.2 µM; with SK-MEL-2 melanoma it was 3.52 µM; in the test on SK-MEL-28 melanoma, 18.4 µM; in the test on SNB-19 CNS it was 0.0667 µM.

As to `O=C(O)c1nc(NCc2nc3cc(Cl)ccc3o2)n[nH]1`, the GI50 in the test on ACHN renal, with EKVX NSCLC, in the test with HCT-15 colon, in the test on LOX IMVI melanoma, in the test with M14 melanoma and in the test on MALME-3M melanoma was greater than 100 µM each time. In addition, the GI50 in the test with SF-268 CNS, in the test on SK-MEL-2 melanoma, in the test with SK-MEL-28 melanoma and in the test with SNB-19 CNS was greater than 100 µM each time. Also, the TGI in the test with ACHN renal, in the test on EKVX NSCLC, in the test with HCT-15 colon, with LOX IMVI melanoma, with M14 melanoma and with MALME-3M melanoma was greater than 100 µM each time. Further, the TGI with SF-268 CNS, with SK-MEL-2 melanoma, in the test with SK-MEL-28 melanoma and in the test with SNB-19 CNS was greater than 100 µM in each case.
